In PubChem BioAssay (NCI) one finds TGI data, which are given here for 14 compounds.

By TGI is commonly meant the concentration giving total growth inhibition. Lower therefore signals greater sensitivity of the cells.

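Method: 48-hour compound exposure of cells in 96-well plates, five concentrations, linear interpolation of endpoints. At the TGI there is no net growth.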

Test systems include BT-549 breast; COLO 205 colon; HCC-2998 colon; HS 578T breast; MCF7 breast; NCI-H23 lung; PC-3 prostate; SF-539 CNS; SK-OV-3 ovarian; TK-10 renal.
Holding throughout (assay): DTP human tumour cell line panel, 48 h

Turning to `CC12CCC(=O)[C@@]1(C)CCCC2=O` (stereo not given in full), the TGI in the experiment on BT-549 breast, in the experiment on COLO 205 colon, in the experiment on HCC-2998 colon, with HS 578T breast, in the experiment with MCF7 breast and in the experiment with NCI-H23 lung was more than 100 µM each time. Further, the TGI in the experiment with PC-3 prostate, with SF-539 CNS, in the experiment on SK-OV-3 ovarian and in the experiment on TK-10 renal was more than 100 µM each time.

For the compound `Cc1cccc2c(N)c3cccc(C(=O)NCC[N+](C)(C)[O-])c3nc12`, the concentration for total growth inhibition (TGI) in the experiment on BT-549 breast was 41.8 µM; with COLO 205 colon, 40.4 µM; in the experiment on HCC-2998 colon, 24.5 µM; with HS 578T breast, 38.9 µM; in the experiment with MCF7 breast, more than 100 µM; with NCI-H23 lung it was 16.7 µM. Moreover, the total growth inhibition concentration (TGI) was 60.4 µM in the experiment with PC-3 prostate, 36.7 µM in the experiment with SF-539 CNS, 64.6 µM with SK-OV-3 ovarian and more than 100 µM in the experiment with TK-10 renal.

For `C=C1C[C@@H]2CC[C@@]34CC5O[C@H]6C(O[C@H]7CC[C@H](CC(=O)O[C@@H]8[C@@H](C)[C@@H]9O[C@@H]%10C[C@]%11(C[C@@H]%12O[C@]%13(C[C@H](C)[C@@H]%14O[C@@H]%15CC(C(COC(C)=O)OC(C)=O)O[C@@H]%15C[C@@H]%14O%13)C[C@H](C)[C@@H]%12O%11)O[C@@H]%10C[C@@H]9O[C@H]8CC8O[C@@H](CC[C@@H]1O2)C[C@@H](C)C8(O)CO)O[C@@H]7[C@@H]6O3)[C@H]5O4` (stereo not given in full), the total growth inhibition concentration (TGI) in the experiment with BT-549 breast was 0.751 µM; in the experiment with COLO 205 colon, more than 1 µM; in the experiment on HCC-2998 colon, more than 0.225 µM; in the experiment with HS 578T breast it was 0.801 µM; in the experiment with MCF7 breast, more than 1 µM; with NCI-H23 lung, 0.997 µM. Besides, the concentration for total growth inhibition (TGI) with PC-3 prostate, with SK-OV-3 ovarian and in the experiment with TK-10 renal was more than 1 µM in each case.

`CCOC(=O)C(NC(=O)CC)(Nc1ccccc1F)C(F)(F)F` (stereo not given): the concentration for total growth inhibition (TGI) in the experiment with BT-549 breast, with COLO 205 colon, with HCC-2998 colon, in the experiment on HS 578T breast, in the experiment on MCF7 breast and with NCI-H23 lung was more than 100 µM throughout. For the same compound, the TGI in the experiment on PC-3 prostate, in the experiment on SF-539 CNS, in the experiment with SK-OV-3 ovarian and in the experiment on TK-10 renal was more than 100 µM each time.

As for `CO[C@H](C)[C@](O)(C(=O)OCC1=CCN2CC[C@@H](O)[C@H]12)C(C)C`, the TGI in the experiment with BT-549 breast, with COLO 205 colon, in the experiment with HCC-2998 colon, in the experiment on HS 578T breast, in the experiment with MCF7 breast and in the experiment with NCI-H23 lung was more than 100 µM each time. Also, the TGI with PC-3 prostate, in the experiment on SF-539 CNS, with SK-OV-3 ovarian and with TK-10 renal was more than 100 µM each time.

For `C[N+]1(CCCCN2c3ccccc3Sc3cc(N=[N+]=[N-])ccc32)CCN(C(=O)CCNC(=O)Cc2ccc(C(=O)c3ccccc3)cc2)CC1`, the concentration for total growth inhibition (TGI) was more than 71.4 µM in the experiment on BT-549 breast; 34.9 µM with COLO 205 colon; 39.9 µM in the experiment on HCC-2998 colon; more than 83.1 µM with HS 578T breast; 68 µM with MCF7 breast; more than 82.4 µM with NCI-H23 lung. Moreover, the TGI in the experiment on PC-3 prostate was 40.7 µM; in the experiment on SF-539 CNS, more than 76.9 µM; in the experiment on SK-OV-3 ovarian, 62 µM; in the experiment on TK-10 renal, 26.5 µM.

Regarding `O=c1[nH]nc(-c2ccc([N+](=O)[O-])cc2)[nH]1`, the concentration for total growth inhibition (TGI) in the experiment with BT-549 breast, in the experiment with COLO 205 colon, with HCC-2998 colon, in the experiment with HS 578T breast, with MCF7 breast and in the experiment on NCI-H23 lung was more than 100 µM in each case. Also, the TGI with PC-3 prostate, in the experiment on SF-539 CNS and in the experiment on TK-10 renal was more than 100 µM each time.

In the case of `COc1ccc(CCn2ccc(=O)c(O)c2C)cc1OC`, the total growth inhibition concentration (TGI) in the experiment with BT-549 breast was more than 100 µM; in the experiment with COLO 205 colon, more than 100 µM; in the experiment on HS 578T breast, 0.0907 µM; with MCF7 breast, 61.5 µM; with NCI-H23 lung, more than 100 µM; with PC-3 prostate it was more than 100 µM. The TGI is 73.9 µM in the experiment on SF-539 CNS, more than 100 µM in the experiment on SK-OV-3 ovarian and more than 100 µM with TK-10 renal.

Turning to `COc1ccccc1Cn1c2c(c3cc(O)ccc31)C(=O)c1ccccc1C2=O`, the TGI was more than 100 µM in the experiment on BT-549 breast; more than 100 µM in the experiment on COLO 205 colon; more than 100 µM in the experiment with HS 578T breast; 96.7 µM in the experiment on MCF7 breast; 95.8 µM in the experiment on NCI-H23 lung; 53.5 µM in the experiment with PC-3 prostate. Moreover, the TGI is 57.6 µM with SF-539 CNS, 10 µM with SK-OV-3 ovarian and more than 100 µM in the experiment with TK-10 renal.

For `CC(=O)Nc1ccc2c(c1)nc1c3ccccc3ccn21`, the concentration for total growth inhibition (TGI) in the experiment on BT-549 breast, in the experiment on COLO 205 colon, in the experiment on HS 578T breast, with MCF7 breast, with NCI-H23 lung and in the experiment with PC-3 prostate was more than 100 µM each time. Moreover, the concentration for total growth inhibition (TGI) with SF-539 CNS, with SK-OV-3 ovarian and in the experiment on TK-10 renal was more than 100 µM in each case.

For the compound `CC1CCc2sc3[nH]c(=S)n(C)c(=O)c3c2C1` (stereo not given), the concentration for total growth inhibition (TGI) in the experiment with BT-549 breast is more than 100 µM; in the experiment on COLO 205 colon, more than 100 µM; in the experiment with HCC-2998 colon it was 82.5 µM; with HS 578T breast, more than 100 µM; in the experiment with MCF7 breast it was more than 100 µM; in the experiment on NCI-H23 lung, more than 100 µM. Besides, the TGI was 72 µM in the experiment with PC-3 prostate, more than 100 µM in the experiment with SK-OV-3 ovarian and more than 100 µM in the experiment on TK-10 renal.

As to `N#Cc1ccnc(C(=O)N2CCCC2C(=O)O)c1` (stereo not given), the TGI in the experiment with BT-549 breast, in the experiment on COLO 205 colon, in the experiment on HCC-2998 colon, in the experiment with HS 578T breast, in the experiment with MCF7 breast and with NCI-H23 lung was more than 100 µM each time. For the same compound, the TGI with PC-3 prostate, with SF-539 CNS and in the experiment on TK-10 renal was more than 100 µM in each case.

In the case of `O=C(O)C12C3C4(C(=O)O)C1C1(C(=O)O)C2C3(C(=O)O)C41` (stereo not given), the total growth inhibition concentration (TGI) in the experiment with BT-549 breast, with COLO 205 colon, in the experiment on HCC-2998 colon, in the experiment with HS 578T breast, with MCF7 breast and in the experiment with NCI-H23 lung was more than 100 µM in each case. In addition, the TGI in the experiment with PC-3 prostate, in the experiment on SF-539 CNS and in the experiment on TK-10 renal was more than 100 µM each time.

Turning to `CN(C)C(=O)/N=C1\SC(=Nc2ccccc2)C(=Nc2ccccc2)N1c1ccc([N+](=O)[O-])cc1`, the TGI with BT-549 breast, in the experiment on COLO 205 colon, with HCC-2998 colon, in the experiment with HS 578T breast, in the experiment with MCF7 breast and with NCI-H23 lung was more than 100 µM each time. Further, the TGI in the experiment on PC-3 prostate and in the experiment with SK-OV-3 ovarian was more than 100 µM in each case.
